# Data from ChEMBL document CHEMBL1201862, “PubChem BioAssay data set” (2004).
# Active and inactive are the calls of the source. Rule as the data show it, for most assays here: actives have a measured EC50 and inactives only a lower limit.
# Experiments:
# [1] = molecular target: T1, Heat shock factor protein 1 (Mus musculus, UniProt P38532); experiment: inhibition of MG132-induced HSE-luciferase signal, confirmation, cell-based, NIH3T3, luminescence, dose retest (AID 2382); assay type: functional;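 also: NIH3T3 fibroblasts with HSF1-driven luciferase reporter stressed by proteasome inhibitor MG132; luminescence from HSF1-driven luciferase expression after 8 hours of MG132 stress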
# T1 sequence (P38532 whole entry): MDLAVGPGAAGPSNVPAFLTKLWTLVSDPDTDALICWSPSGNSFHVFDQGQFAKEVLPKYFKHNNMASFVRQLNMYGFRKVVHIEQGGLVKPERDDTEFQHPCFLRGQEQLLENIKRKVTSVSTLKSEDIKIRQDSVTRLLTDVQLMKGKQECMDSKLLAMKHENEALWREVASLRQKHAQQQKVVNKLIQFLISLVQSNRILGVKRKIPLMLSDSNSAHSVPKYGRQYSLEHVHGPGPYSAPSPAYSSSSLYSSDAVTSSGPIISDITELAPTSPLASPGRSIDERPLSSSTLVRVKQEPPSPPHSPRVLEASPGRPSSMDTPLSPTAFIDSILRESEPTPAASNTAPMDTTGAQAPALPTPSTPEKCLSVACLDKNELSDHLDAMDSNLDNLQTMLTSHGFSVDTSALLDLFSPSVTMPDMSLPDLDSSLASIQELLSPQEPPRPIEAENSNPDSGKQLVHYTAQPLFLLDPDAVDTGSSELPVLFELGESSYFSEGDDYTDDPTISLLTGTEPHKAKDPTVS
# [2] = molecular target: T1, Heat shock factor protein 1; experiment: HSF1 potentiators in luciferase reporter cells, confirmation, cell-based, NIH3T3, luminescence, dose retest (AID 435004); assay type: functional;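 also: stress induced by proteasome inhibitor MG132 added 30 min after compound; luciferase reporter driven by HSF1 response element in NIH3T3 cells; actives raise luminescence as potentiators of the MG132 stress response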
# [3] = Luminescence Cell-Based Dose Retest to Confirm Inhibitors of Cancer Stem Cells. [Related pubchem assays (depositor defined):AID2717, AID2721]; assay type: functional; conditions: Homo sapiens
# Streptococcus = experiment: Group A Streptococcus viability loss, dose response, counter-screen for streptokinase expression inhibitor project, luminescence, BacTiterGlo (AID 1915); assay type: functional, organism-based;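 also: potency for reduction of bacterial viability or growth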
# [4] = test system: Streptococcus sp. 'group A'; experiment: growth inhibition of control SK(-) GAS strain, dose response, counter-screen for streptokinase expression inhibitor project, luminescence, kanamycin, BacTiterGlo, confirmation (AID 1900); assay type: functional, organism-based
# Streptokinase A = molecular target: T2, Streptokinase A (Streptococcus pyogenes serotype M1, UniProt P10520); experiment: S. pyogenes streptokinase expression inhibitors, potency, dose response, plasminogen activation absorbance, OD405 (AID 1914); assay type: functional, Streptococcus pyogenes M1 GAS;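 also: secreted streptokinase activity via plasminogen activation per viability signal from cell pellet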
# T2 sequence (P10520 whole entry): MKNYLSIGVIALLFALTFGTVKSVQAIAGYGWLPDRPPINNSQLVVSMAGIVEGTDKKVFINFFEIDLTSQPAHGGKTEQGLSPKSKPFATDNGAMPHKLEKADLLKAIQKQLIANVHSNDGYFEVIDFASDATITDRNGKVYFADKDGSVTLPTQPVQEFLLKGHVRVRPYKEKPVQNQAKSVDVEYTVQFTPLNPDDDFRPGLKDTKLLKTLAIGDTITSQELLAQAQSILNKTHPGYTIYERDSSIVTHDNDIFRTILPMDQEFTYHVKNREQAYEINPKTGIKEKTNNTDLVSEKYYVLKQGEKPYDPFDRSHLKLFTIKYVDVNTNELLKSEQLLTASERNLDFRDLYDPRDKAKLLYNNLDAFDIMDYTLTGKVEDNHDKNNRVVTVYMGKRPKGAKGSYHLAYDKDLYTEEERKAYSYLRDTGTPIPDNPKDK
# [5] = cytotoxicity toward NIH3T3 fibroblasts, dose response, counter-screen, cell-based, ATP luminescence, mouse fibroblasts (AID 2010); assay type: functional;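 also: cells exposed to compound for about 90 hours before reading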
# [6] = inhibitors of intracellular T. cruzi replication, confirmation, NIH3T3 host cells, beta-gal luminescence (AID 2044); assay type: functional, cell-based;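 also: intracellular parasites grown in NIH/3T3 mouse fibroblasts as host cells; luminescent beta-galactosidase reporter signal from transgenic T. cruzi replicating inside host cells; inhibitors lower the luminescence signal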
# Cytochrome P450 1A2 = molecular target: T3, Cytochrome P450 1A2 (Homo sapiens, UniProt P05177);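 also: PubChem cytochrome P450 panel assay, CYP1A2 panel member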
# T3 sequence (P05177 whole entry): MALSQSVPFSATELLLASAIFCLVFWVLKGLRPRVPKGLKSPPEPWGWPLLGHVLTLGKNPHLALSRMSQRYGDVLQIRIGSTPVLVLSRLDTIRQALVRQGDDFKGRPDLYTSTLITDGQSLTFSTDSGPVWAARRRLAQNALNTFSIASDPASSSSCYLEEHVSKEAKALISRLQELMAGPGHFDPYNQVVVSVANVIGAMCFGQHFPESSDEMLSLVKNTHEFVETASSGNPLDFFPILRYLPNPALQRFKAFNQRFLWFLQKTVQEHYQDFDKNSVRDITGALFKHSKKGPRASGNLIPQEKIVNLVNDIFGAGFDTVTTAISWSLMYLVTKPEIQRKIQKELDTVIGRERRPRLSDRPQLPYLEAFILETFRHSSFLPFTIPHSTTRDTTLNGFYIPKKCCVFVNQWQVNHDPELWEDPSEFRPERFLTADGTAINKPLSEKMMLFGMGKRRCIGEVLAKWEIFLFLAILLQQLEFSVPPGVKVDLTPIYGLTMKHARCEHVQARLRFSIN
# [7] = HEp-2 cell cytotoxicity, dose response, cytotoxicity control for RSV inhibitor project, HTS (AID 2410); assay type: functional; conditions: human respiratory syncytial virus
structure (smiles),measurement,setting,value
Cc1ccc(-c2nc(-c3cccnc3)sc2CC(=O)Nc2ccc3nc(C)sc3c2)cc1,EC50,[1],> 195 µM (not active)
COc1cccc(C(=O)Nc2ccc3c(C)cc(=O)oc3c2)c1,EC50,[2],> 260 µM (inactive)
CSc1cccc(NS(=O)(=O)c2cc(Br)cnc2N)c1,EC50,[1],> 195 µM (not active)
CCCC/C(C)=C/[C@@H](NP(=O)(c1ccccc1)c1ccccc1)c1ccccc1,AC50,[3],6.1 µM (active)
CC1CCCN(C(=O)c2ccccc2OC2CCN(S(C)(=O)=O)CC2)C1 (centres undefined),EC50,[2],> 260 µM (inactive)
CCOC(=O)Cn1c(=O)oc2cc(S(=O)(=O)NCCC(C)C)ccc21,EC50,[1],> 195 µM (not active)
COc1cccc(N=Nc2c(N)nn3c(O)cc(-c4ccccc4)nc23)c1,EC50,Streptococcus,31.3 µM (active)
same,EC50,[4],2.27 µM (active)
same,EC50,Streptokinase A,> 150 µM (not active)
COc1ccc(S(=O)(=O)N/N=C(/C)c2ccncc2)cc1,EC50,Streptococcus,> 150 µM (not active)
same,EC50,[4],> 150 µM (not active)
same,EC50,Streptokinase A,> 150 µM (not active)
C=CCNc1cc(C)oc(=O)c1C(=O)CCC,EC50,[1],> 195 µM (not active)
CCOC(=O)C1=CN(Cc2ccc(OC)cc2)C=C(C(=O)OCC)C1c1cccs1,EC50,[2],> 260 µM (inactive)
Cc1ccc(C2=Nc3ccccc3NC(C)(c3ccc(C)o3)C2)o1 (centres undefined),EC50,[2],> 260 µM (inactive)
O=C(CSC(=S)N1CCCCC1)Nc1ncc2c(n1)CCCC2=O,EC50,[1],> 195 µM (not active)
O=C(CN1CCCC1)Nc1c2c(cc3c1CCC3)CCC2,EC50,[1],> 195 µM (not active)
CCN1C(=O)C(CC(=O)Nc2ccc(OC)cc2)N(CCCN2CCN(c3ccc(F)cc3)CC2)C1=S (centres undefined),AC50,[3],5.53 µM (active)
CCN(CC)CCSc1nnc2c3ccccc3n(Cc3ccccc3)c2n1,AC50,[3],0.829 µM (active)
same,EC50,[5],> 60 µM (not active)
same,EC50,[6],0.284 µM (active)
CC(C)Nc1nc(Oc2cccc(Cl)c2Cl)cc(C(F)(F)F)n1,EC50,Streptococcus,8.83 µM (active)
same,EC50,[4],6.13 µM (active)
same,EC50,Streptokinase A,> 150 µM (not active)
Cc1cc(C)c(OCC(=O)N2CCN(c3ncc(C(F)(F)F)cc3Cl)CC2)c(C)c1,EC50,Streptococcus,23.8 µM (active)
same,EC50,[4],12.8 µM (active)
same,EC50,Streptokinase A,7.69 µM (active)
CC(NNc1ccccc1)=C1C(=O)N(C)C(=O)N(C)C1=O,AC50,[3],1.81 µM (active)
COC1CCCN(C(=O)c2ccc(OC3CCN(CCc4ccccc4)CC3)cc2)C1 (centres undefined),EC50,[1],> 195 µM (not active)
CCC(C)c1ccc(OCc2ccc(C(=O)O)o2)cc1 (centres undefined),EC50,[1],18.7 µM (inconclusive)
Cc1ccccc1C(=O)NC[C@@H]1CCCN2CCCC[C@H]12,EC50,[1],18.6 µM (active)
NS(=O)(=O)c1cc2c(cc1Cl)NCNS2(=O)=O [HYDROCHLOROTHIAZIDE],EC50,[1],> 195 µM (not active)
Cc1ccc(NC(=S)Nc2cccc3ccccc23)cc1,EC50,[1],> 195 µM (not active)
CCCCC/C=C\C/C=C\C/C=C\C/C=C\CCCC(=O)Nc1ccc(O)cc1,EC50,Streptococcus,3.32 µM (active)
same,EC50,[4],0.827 µM (active)
same,EC50,Streptokinase A,> 150 µM (inconclusive)
same,AC50,Cytochrome P450 1A2,20 µM (inconclusive)
Nc1ccc(S(=O)(=O)N2CCC(Cc3ccccc3)CC2)cc1,EC50,[1],> 195 µM (not active)
COc1cc(/C=N/N2CCN(Cc3ccccc3)CC2)cc(OC)c1OC(C)=O,EC50,[1],> 195 µM (not active)
N#Cc1ccc(C(=O)Nc2nc(SCc3ccc(Cl)cc3)n[nH]2)cc1,EC50,Streptococcus,> 150 µM (not active)
same,EC50,[4],1.97 µM (active)
same,EC50,Streptokinase A,> 150 µM (not active)
COc1cccc(-c2cc3nc4c(c(N5CCC6(CC5)OCCO6)n3n2)CCCC4)c1,AC50,[3],4.89 µM (active)
O=[N+]([O-])c1cc(C(F)(F)F)ccc1NCCc1c[nH]c2ccccc12,AC50,[3],4.48 µM (active)
Cc1ccc(Oc2ccc3c(c2)C(=O)N(c2cccc4cccnc24)C3=O)cc1,EC50,Streptococcus,> 150 µM (not active)
same,EC50,[4],25.6 µM (active)
same,EC50,Streptokinase A,25.3 µM (active)
O=C(Nc1nc2ccccc2n1CCOc1ccccc1)c1ccco1,EC50,Streptococcus,9.64 µM (active)
same,EC50,[4],4.16 µM (active)
same,EC50,Streptokinase A,> 150 µM (not active)
COc1ccccc1-c1cc(=O)c2c(O)ccc([N+](=O)[O-])c2o1,EC50,Streptococcus,10.4 µM (active)
same,EC50,[4],1.4 µM (active)
same,EC50,Streptokinase A,> 150 µM (not active)
O=c1c(/C=N\NS(=O)(=O)c2ccccc2)coc2ccc(Cl)cc12,EC50,[1],44.5 µM (active)
O=S(=O)(NCCSCc1c(Cl)cccc1Cl)c1ccc2c(c1)OCCO2,EC50,Streptococcus,24.5 µM (active)
same,EC50,[4],11.6 µM (active)
same,EC50,Streptokinase A,> 150 µM (not active)
Nc1nc(CSC(=S)N2CCCCC2)nc(Nc2ccccc2)n1,EC50,[1],> 195 µM (not active)
O=C(Nc1ccc(C(=O)NCc2ccc(F)cc2)cc1)C1=CSCCO1,EC50,Streptococcus,> 150 µM (not active)
same,EC50,[4],> 150 µM (not active)
same,EC50,Streptokinase A,> 150 µM (not active)
CCN(c1ccc(NC(=O)CCc2nc(O)c3c4c(sc3n2)CCCC4)cc1)C(C)C,AC50,[3],4.71 µM (active)
CC(C)(C)NC(=O)C1CC2CCCCC2CN1 (centres undefined),EC50,Streptococcus,> 150 µM (not active)
same,EC50,[4],> 150 µM (not active)
same,EC50,Streptokinase A,> 150 µM (not active)
CCCCCCSc1cccc(-c2nc3cc(C)ccn3c2NC2CCCCC2)c1,AC50,[3],4.23 µM (active)
O=C(NCC1(N2CCCCC2)CCCCC1)c1cccc(NS(=O)(=O)c2ccccc2)c1,EC50,Streptococcus,> 150 µM (not active)
same,EC50,[4],> 150 µM (not active)
same,EC50,Streptokinase A,> 150 µM (not active)
O=C(Nc1ccccc1)c1ccc2c(c1)CCN2S(=O)(=O)c1ccccc1,CC50,[7],16 µM (active)
CCS(=O)(=O)N1Cc2ccccc2CC1C(=O)Nc1nnc(SCc2ccc(C#N)cc2)s1 (centres undefined),EC50,Streptococcus,94.3 µM (active)
same,EC50,[4],16.1 µM (active)
same,EC50,Streptokinase A,> 150 µM (not active)
CC1CCCCN1c1nc(-c2ccncc2)nc2ccccc12 (centres undefined),CC50,[7],44.4 µM (active)
same,EC50,[5],> 30 µM (not active)
same,EC50,[6],0.576 µM (active)
N#Cc1cn(CCOc2ccc(F)cc2)c2ccccc12,CC50,[7],14.1 µM (active)
Cc1cc(/C=C2\SC(=S)N(Cc3ccco3)C2=O)c(C)n1-c1ccccc1,EC50,[1],1.57 µM (active)
same,AC50,[3],2.2 µM (active)
O=C(NNc1ccccc1)C(=O)N1CCCCC1,AC50,[3],1.03 µM (active)
CN(C(=O)CN1C(=O)S/C(=C\c2ccccc2)C1=O)C1CCS(=O)(=O)C1 (centres undefined),EC50,[1],> 195 µM (not active)
CC1CCN(CC(=O)c2cccs2)CC1,EC50,[1],> 195 µM (not active)
CCOC(=O)c1cc2c(=O)n3ccccc3nc2n(CCOC)/c1=N/C(=O)c1c(-c2c(F)cccc2Cl)noc1C,CC50,[7],5.3 µM (active)
CC(C)Cc1nnc(NC(=O)CCC(=O)N2CCN(c3ccccc3)CC2)s1,EC50,Streptococcus,> 150 µM (not active)
same,EC50,[4],> 150 µM (not active)
same,EC50,Streptokinase A,> 150 µM (not active)
Cc1ccc(N2CCN(C(=O)C3CCCN(c4ncnc5c4nc4n5CCCCC4)C3)CC2)c(C)c1 (centres undefined),CC50,[7],9.35 µM (active)
COc1ccccc1NC(=O)CSc1nc2nnc(C)c-2c(N)n1-c1ccccc1Cl,CC50,[7],16.8 µM (active)
O=C1c2ccccc2C(Nc2ccc3c(c2)OCCO3)N1c1ccc(Cl)cn1 (centres undefined),EC50,[1],> 195 µM (not active)
